ChEMBL document CHEMBL3045319, “Synthesis, antitumor activity, and structureactivity relationship of some 4H-pyrano[3,2-h]quinoline and 7H-pyrimido[4,5:6,5]pyrano[3,2-h]quinoline derivatives” (Med Chem Res, 2013)
In brackets after ≈: the same amount, converted by molar mass.

How the values were obtained:
[1] = system: HepG2; assay: Cytotoxicity against Homo sapiens (human) HepG2 cells assessed as cell viability at 25 ug/ml after 48 hr by MTT assay relative to control; type: functional; conditions: HepG2, 48 h, read-out: Activity
[2] = Cytotoxicity against Homo sapiens (human) HCT cells assessed as cell viability at 50 ug/ml after 48 hr by MTT assay relative to control; type: functional; conditions: read-out: Activity
[3] = system: MCF7; assay: Cytotoxicity against Homo sapiens (human) MCF7 cells after 48 hr by MTT assay; type: functional, cell-based; conditions: MCF7, 48 h
[4] = Cytotoxicity against Homo sapiens (human) HCT cells after 48 hr by MTT assay; type: functional, cell-based
[5] = system: HepG2; assay: Cytotoxicity against Homo sapiens (human) HepG2 cells assessed as cell viability at 1.56 ug/ml after 48 hr by MTT assay relative to control; type: functional; conditions: HepG2, 48 h, read-out: Activity
[6] = system: HepG2; assay: Cytotoxicity against Homo sapiens (human) HepG2 cells assessed as cell viability at 50 ug/ml after 48 hr by MTT assay relative to control; type: functional; conditions: HepG2, 48 h, read-out: Activity
[7] = Cytotoxicity against Homo sapiens (human) HCT cells assessed as cell viability at 6.25 ug/ml after 48 hr by MTT assay relative to control; type: functional; conditions: read-out: Activity
[8] = system: HepG2; assay: Cytotoxicity against Homo sapiens (human) HepG2 cells after 48 hr by MTT assay; type: functional, cell-based; conditions: Homo sapiens, HepG2, 48 h; read-out: IC50
[9] = Cytotoxicity against Homo sapiens (human) HCT cells assessed as cell viability at 25 ug/ml after 48 hr by MTT assay relative to control; type: functional; conditions: read-out: Activity
[10] = system: MCF7; assay: Cytotoxicity against Homo sapiens (human) MCF7 cells assessed as cell viability at 12.5 ug/ml after 48 hr by MTT assay relative to control; type: functional; conditions: MCF7, 48 h, read-out: Activity
[11] = system: MCF7; assay: Cytotoxicity against Homo sapiens (human) MCF7 cells assessed as cell viability at 6.25 ug/ml after 48 hr by MTT assay relative to control; type: functional; conditions: MCF7, 48 h, read-out: Activity
[12] = system: MCF7; assay: Cytotoxicity against Homo sapiens (human) MCF7 cells assessed as cell viability at 3.125 ug/ml after 48 hr by MTT assay relative to control; type: functional; conditions: MCF7, 48 h, read-out: Activity
[13] = system: HepG2; assay: Cytotoxicity against Homo sapiens (human) HepG2 cells assessed as cell viability at 3.125 ug/ml after 48 hr by MTT assay relative to control; type: functional; conditions: HepG2, 48 h, read-out: Activity
[14] = system: MCF7; assay: Cytotoxicity against Homo sapiens (human) MCF7 cells assessed as cell viability at 1.56 ug/ml after 48 hr by MTT assay relative to control; type: functional; conditions: MCF7, 48 h, read-out: Activity
[15] = Cytotoxicity against Homo sapiens (human) HCT cells assessed as cell viability at 12.5 ug/ml after 48 hr by MTT assay relative to control; type: functional; conditions: read-out: Activity
[16] = Cytotoxicity against Homo sapiens (human) HCT cells assessed as cell viability at 1.56 ug/ml after 48 hr by MTT assay relative to control; type: functional; conditions: read-out: Activity
[17] = system: MCF7; assay: Cytotoxicity against Homo sapiens (human) MCF7 cells assessed as cell viability at 50 ug/ml after 48 hr by MTT assay relative to control; type: functional; conditions: MCF7, 48 h, read-out: Activity
[18] = system: HepG2; assay: Cytotoxicity against Homo sapiens (human) HepG2 cells assessed as cell viability at 12.5 ug/ml after 48 hr by MTT assay relative to control; type: functional; conditions: HepG2, 48 h, read-out: Activity
[19] = system: HepG2; assay: Cytotoxicity against Homo sapiens (human) HepG2 cells assessed as cell viability at 6.25 ug/ml after 48 hr by MTT assay relative to control; type: functional; conditions: HepG2, 48 h, read-out: Activity
[20] = Cytotoxicity against Homo sapiens (human) HCT cells assessed as cell viability at 3.125 ug/ml after 48 hr by MTT assay relative to control; type: functional; conditions: read-out: Activity
[21] = system: MCF7; assay: Cytotoxicity against Homo sapiens (human) MCF7 cells assessed as cell viability at 25 ug/ml after 48 hr by MTT assay relative to control; type: functional; conditions: MCF7, 48 h, read-out: Activity

SMILES | viability at 25 µg/mL [1] | viability at 50 µg/mL [2] | IC50 [3] | IC50 [4] | viability at 1.56 µg/mL [5] | viability at 50 µg/mL [6] | viability at 6.25 µg/mL [7] | IC50 [8] | viability at 25 µg/mL [9] | viability at 12.5 µg/mL [10] | viability at 6.25 µg/mL [11] | viability at 3.125 µg/mL [12] | viability at 3.125 µg/mL [13] | viability at 1.56 µg/mL [14] | viability at 12.5 µg/mL [15] | viability at 1.56 µg/mL [16] | viability at 50 µg/mL [17] | viability at 12.5 µg/mL [18] | viability at 6.25 µg/mL [19] | viability at 3.125 µg/mL [20] | also measured
CCO/C=N/C1=C(C#N)C(c2ccc(Cl)cc2)c2ccc3cccnc3c2O1 (stereo unspecified) | 57.1% | 23.9% | 45.4 µg/mL (≈ 116 µM) | 25.7 µg/mL (≈ 65.9 µM) | 97.6% | 39.4% | 73.3% | 31.1 µg/mL (≈ 79.8 µM) | 51.4% | 74.2% | 81.4% | 93% | 91% | 98.3% | 67.1% | 93.4% | 43% | 72.3% | 86.6% | 81.7% | viability at 25 µg/mL [21]: 67.1%
Cc1ccc2ccc3c(c2n1)Oc1ncnc(N)c1C3c1ccc(Cl)cc1 (stereo unspecified) | 37% | 41.6% | > 50 µg/mL | 26.4 µg/mL (≈ 70.4 µM) | 68.3% | 28.3% | 90.5% | 6.3 µg/mL (≈ 16.8 µM) | 51.1% | 89.2% | 94.5% | 97.3% | 60.2% | 100% | 78.9% | 100% | 70.2% | 43.7% | 50.8% | 98.8% | viability at 25 µg/mL [21]: 81.7%
Cc1ccc2ccc3c(c2n1)OC(/N=C/N)=C(C#N)C3c1ccc(Cl)cc1 (stereo unspecified) | 53.8% | 35.9% | > 50 µg/mL | 21.7 µg/mL (≈ 57.9 µM) | 80.5% | 41.2% | 70.7% | 32.9 µg/mL (≈ 87.8 µM) | 44.2% | 81.5% | 89.3% | 96.5% | 76.7% | 98.4% | 65.2% | 91.6% | 63.6% | 57.7% | 68% | 82.2% | viability at 25 µg/mL [21]: 74.2%
N#CC1=C(/N=C/NN)Oc2c(ccc3cccnc23)C1c1ccc(Cl)cc1 (stereo unspecified) | 29.1% | 24.8% | 8.4 µg/mL (≈ 22.4 µM) | 7.4 µg/mL (≈ 19.7 µM) | 88.2% | 24.9% | 55.6% | 8.7 µg/mL (≈ 23.1 µM) | 29.2% | 45% | 55% | 67% | 78.4% | 78.8% | 36% | 81.4% | 21.4% | 36% | 60.9% | 65.2% | viability at 25 µg/mL [21]: 35.2%
Cc1ccc2ccc3c(c2n1)OC(N)=C(C#N)C3c1ccc(Cl)cc1 (stereo unspecified) | 33.7% | 27.6% | 27.9 µg/mL (≈ 80.2 µM) | 15.8 µg/mL (≈ 45.4 µM) | 51.9% | 23.1% | 66.8% | 1.8 µg/mL (≈ 5.18 µM) | 35.8% | 71.4% | 78.2% | 87% | 43% | 100% | 55.6% | 94% | 28% | 35.6% | 37.6% | 79% | viability at 25 µg/mL [21]: 58.2%
CCO/C=N/C1=C(C#N)C(c2ccc(Br)cc2)c2ccc3ccc(C)nc3c2O1 (stereo unspecified) | 62.9% | 19.8% | > 50 µg/mL | 5.8 µg/mL (≈ 12.9 µM) | 100% | 34.6% | 46.5% | 37.1 µg/mL (≈ 82.8 µM) | 23.3% | 79.2% | 87.6% | 95.4% | 94.6% | 98.1% | 34% | 81.9% | 56.6% | 76.4% | 83.3% | 62.9% | viability at 25 µg/mL [21]: 67.4%
N#CC1=C(/N=C/c2ccccc2)Oc2c(ccc3cccnc23)C1c1ccc(Cl)cc1 (stereo unspecified) | 31.4% | 9.13% | 2.8 µg/mL (≈ 6.64 µM) | 0.6 µg/mL (≈ 1.42 µM) | 56.1% | 18.6% | 19.4% | 2.8 µg/mL (≈ 6.64 µM) | 11.6% | 37.2% | 40.8% | 48.3% | 48.9% | 55% | 14.8% | 38.5% | 26.5% | 37.9% | 42.5% | 30.2% | viability at 25 µg/mL [21]: 33.3%
CCO/C=N/C1=C(C#N)C(c2ccc(Cl)cc2)c2ccc3ccc(C)nc3c2O1 (stereo unspecified) | 69% | 15.2% | 23.8 µg/mL (≈ 58.9 µM) | 3.6 µg/mL (≈ 8.91 µM) | 100% | 45.2% | 35.3% | 44.5 µg/mL (≈ 110 µM) | 18.4% | 63.4% | 76.6% | 87.4% | 96.4% | 96.1% | 26% | 75.5% | 37.5% | 79.4% | 85.1% | 54.9% | viability at 25 µg/mL [21]: 48.6%
Cc1ccc2ccc3c(c2n1)OC(N)=C(C#N)C3c1ccc(Br)cc1 (stereo unspecified) | 29.3% | 36.6% | 38.9 µg/mL (≈ 99.2 µM) | 22.8 µg/mL (≈ 58.1 µM) | 77.5% | 22% | 66.6% | 5.5 µg/mL (≈ 14 µM) | 48.8% | 71.8% | 75.2% | 82.3% | 64% | 93.9% | 58.2% | 100% | 41.2% | 39.6% | 44.9% | 88% | viability at 25 µg/mL [21]: 62.3%
Nc1ncnc2c1C(c1ccc(Cl)cc1)c1ccc3cccnc3c1O2 (stereo unspecified) | 67.6% | 26.4% | 44.6 µg/mL (≈ 124 µM) | 19.2 µg/mL (≈ 53.2 µM) | 94.4% | 64.3% | 74.6% | > 50 µg/mL | 42% | 75.8% | 81.2% | 94.5% | 90.4% | 100% | 62.1% | 83.1% | 45.4% | 73.3% | 83.3% | 78.6% | viability at 25 µg/mL [21]: 68.8%
CC(=O)NC1=C(C#N)C(c2ccc(Br)cc2)c2ccc3ccc(C)nc3c2O1 (stereo unspecified) | 51.2% | 22.5% | 13.5 µg/mL (≈ 31.1 µM) | 21.3 µg/mL (≈ 49 µM) | 98.8% | 32.6% | 86.8% | 26.5 µg/mL (≈ 61 µM) | 44.5% | 51.2% | 65.8% | 79.9% | 90.7% | 94.8% | 71.8% | 99.8% | 23.4% | 68.6% | 81.6% | 95.1% | viability at 25 µg/mL [21]: 32.1%
